The text below walks through data of ChEMBL document CHEMBL1201862, “PubChem BioAssay data set” (2004).

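Protocol summary: plate cells (96-well), add compound at 5 concentrations, incubate 48 h, interpolate endpoints linearly. GI50: concentration for 50% inhibition of growth.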 Activity calls are given as the source filed them. Rule as the data show it: active = GI50 up to about 1.1 µM and inactive = higher. Bounds are passed on as bounds.

Some test systems named below: LXFL 529; SNB-78; M19-MEL; DMS-114; HOP-18; XF498; DMS-273; DLD-1; RXF 631.
What all share (test): NCI-60 cell line screen, 48 h

Take `Cc1c(C(=O)/C=C/c2ccc([N+](=O)[O-])cc2)[n+]([O-])c2ccccc2[n+]1[O-]`: the GI50 in the assay on LXFL 529 is 29.2 µM (inactive); with SNB-78, 65.5 µM (inactive); in the assay on M19-MEL, > 100 µM (inactive); in the assay on DMS-114, 30.6 µM (inactive); in the assay with HOP-18, > 100 µM (inactive); with XF498, > 100 µM (inactive). The GI50 was 57.3 µM (inactive) in the assay with DMS-273 and 42.7 µM (inactive) with DLD-1.
Consider `CCN(CC)c1oc(N(CC)CC)c(C(=O)Nc2ccccn2)c(=O)c1C(C)=O`, for which the GI50 in the assay with LXFL 529, with SNB-78, with M19-MEL, with DMS-114, with XF498 and in the assay on DMS-273 was > 100 µM (inactive) throughout. For the same compound, the GI50 in the assay on DLD-1 was > 100 µM (inactive).
Regarding `O=C(O)C12C3C4C1C1C2C3C1(Br)C41OCCO1` (stereo unspecified), the GI50 with LXFL 529, in the assay with SNB-78, in the assay on M19-MEL, in the assay with DMS-114, in the assay with HOP-18 and in the assay with XF498 was > 100 µM (inactive) each time. For the same compound, the GI50 with DMS-273 and in the assay with DLD-1 was > 100 µM (inactive) each time.
Turning to `NC1=NCN(C2OC(CO)C(O)C2O)C(=O)N1` (stereo unspecified), the GI50 in the assay with SNB-78 was 36.9 µM (inactive); in the assay on M19-MEL it was 70.6 µM (inactive); with DMS-114, 19 µM (inactive); in the assay on HOP-18, 22.4 µM (inactive); in the assay with XF498, 17.5 µM (inactive); with DMS-273, 7.64 µM (inactive). Moreover, in the assay with DLD-1, the GI50 is 6.52 µM (inactive).
In the case of `CCCC[C@H](CCc1ccccc1)N(C(=O)OC)N1CCC[C@H]1COC`, the GI50 was 17.2 µM (inactive) in the assay with LXFL 529; 21.3 µM (inactive) in the assay with SNB-78; 20.1 µM (inactive) in the assay with M19-MEL; 15.8 µM (inactive) with DMS-114; 16.9 µM (inactive) with RXF 631; 27.2 µM (inactive) with HOP-18. In addition, the results for the GI50 in the assay on XF498, with DMS-273 and in the assay with DLD-1 were 14 µM (inactive), 18.7 µM (inactive) and 18.4 µM (inactive), respectively.
For `O=S(=O)(c1ccccc1)n1cc(C[P+](c2ccccc2)(c2ccccc2)c2ccccc2)c2ccccc21`, the GI50 with LXFL 529 was 1.48 µM (inactive); in the assay with SNB-78 it was 5.71 µM (inactive); in the assay on M19-MEL, 4.29 µM (inactive); in the assay on DMS-114, 3.37 µM (inactive); with XF498, 3.6 µM (inactive); in the assay with DMS-273, 3.21 µM (inactive). In addition, the GI50 in the assay with DLD-1 was 2.46 µM (inactive).
With `Nc1cc2[nH]cnc2c(=O)[nH]1` [DEZAGUANINE], the GI50 in the assay on SNB-78 is > 300 µM (inactive); in the assay on M19-MEL, 181 µM (inactive); with DMS-114, 97.7 µM (inactive); in the assay on HOP-18, > 121 µM (inactive); in the assay on XF498, 5.42 µM (inactive); in the assay on DMS-273 it was 8.26 µM (inactive). The GI50 in the assay on DLD-1 is 13.9 µM (inactive).
For the compound `CN1C(=O)CC2(C)c3cc(O)ccc3N(C)C12` (stereo unspecified), the GI50 in the assay on LXFL 529 was 27.8 µM (inactive); in the assay on SNB-78 it was > 67.3 µM (inactive); in the assay with M19-MEL it was 11.5 µM (inactive); in the assay with DMS-114 it was 38.9 µM (inactive); with RXF 631 it was > 100 µM (inactive); in the assay with HOP-18, > 100 µM (inactive). The GI50 was 17.3 µM (inactive) in the assay on XF498, > 100 µM (inactive) with DMS-273 and > 89.3 µM (inactive) in the assay with DLD-1.
In the case of `CCCc1nc(N)nc(C(=O)Nc2cccc(C(F)(F)F)c2)c1CC`, the GI50 with SNB-78, with M19-MEL, in the assay with DMS-114, with HOP-18, with XF498 and with DMS-273 was > 100 µM (inactive) in each case. Moreover, the GI50 in the assay with DLD-1 is > 100 µM (inactive).
On to `Cc1c2cc[n+](C)cc2c(C)c2c1[nH]c1ccc(Oc3ccccc3)cc12`, for which the GI50 in the assay on LXFL 529 is 0.296 µM (active); in the assay on DMS-273, 0.387 µM (active); with DLD-1 it was 1.3 µM (inactive).
Regarding `COc1ccc2nc(NC(=O)C(=O)C(C#N)c3ccc([N+](=O)[O-])cc3)sc2c1` (stereo unspecified), the GI50 with LXFL 529 is 23.6 µM (inactive); in the assay with SNB-78, > 100 µM (inactive); with M19-MEL it was > 100 µM (inactive); in the assay on DMS-114 it was 43.3 µM (inactive); in the assay on HOP-18, 99.8 µM (inactive); with DMS-273, > 100 µM (inactive). Also, the GI50 in the assay with DLD-1 was > 100 µM (inactive).
Regarding `CC[C@@]1(O)C(=O)OCc2c1cc1n(c2=O)Cc2cc3cc4c(cc3nc2-1)OCO4`, the GI50 with LXFL 529 was 0.0107 µM (active); with SNB-78 it was 0.376 µM (active); in the assay with M19-MEL, 0.00787 µM (active); with DMS-114, < 0.001 µM (active); with RXF 631, 0.0143 µM (active); in the assay with HOP-18, 0.0429 µM (active). Also, the GI50 in the assay with XF498 was 0.0238 µM (active); with DMS-273 it was < 0.001 µM (active); in the assay with DLD-1, 0.0559 µM (active).
Regarding `Nc1ccc(C(=O)NN2C(=O)C(Cl)C2c2cc(Br)ccc2O)cc1` (stereo unspecified), the GI50 in the assay on LXFL 529 was > 100 µM (inactive); with SNB-78, > 100 µM (inactive); in the assay with M19-MEL it was > 100 µM (inactive); in the assay on DMS-114 it was 44.5 µM (inactive); in the assay with XF498, > 100 µM (inactive); in the assay with DMS-273, 80.4 µM (inactive). The GI50 with DLD-1 was > 100 µM (inactive).
Consider `COC(=O)[C@@]1(C)/C(=N/NS(=O)(=O)c2ccc(C)cc2)CCC[C@@H]1C`, for which the GI50 in the assay with LXFL 529 is > 100 µM (inactive); in the assay on SNB-78, > 100 µM (inactive); with M19-MEL, > 100 µM (inactive); with DMS-114, 24.3 µM (inactive); in the assay on HOP-18, > 100 µM (inactive); in the assay with DLD-1 it was 44.7 µM (inactive).
In the case of `CC(C)C(Nc1c2ccccc2[n+](C)c2ccccc12)C(=O)O` (stereo unspecified), the GI50 with LXFL 529, in the assay with SNB-78, in the assay on M19-MEL, with DMS-114, in the assay on HOP-18 and with XF498 was > 100 µM (inactive) each time. Further, the GI50 in the assay on DMS-273 and in the assay with DLD-1 was > 100 µM (inactive) each time.
Consider `CC(=O)OC1CCC2OOC1O2` (stereo unspecified), for which the GI50 in the assay on SNB-78, in the assay on M19-MEL, in the assay with DMS-114 and in the assay on DMS-273 was > 100 µM (inactive) throughout.
Take `NCCCCNc1ccc2c(=O)[nH][nH]c(=O)c2c1`: the GI50 in the assay with LXFL 529, in the assay with SNB-78, in the assay with M19-MEL, in the assay on DMS-114, in the assay with HOP-18 and with DMS-273 was > 100 µM (inactive) throughout. Further, in the assay on DLD-1, the GI50 was > 100 µM (inactive).
As to `O=C(CN1CCOCC1)Nc1nc(-c2ccc(Cl)cc2)cs1`, the GI50 with SNB-78 is 25.2 µM (inactive); in the assay on M19-MEL, 32.6 µM (inactive); in the assay with DMS-114, 21.3 µM (inactive); with HOP-18, 38.5 µM (inactive); with XF498 it was 13.2 µM (inactive); in the assay on DMS-273, 17.5 µM (inactive). Also, the GI50 with DLD-1 was 33.1 µM (inactive).
For the compound `COc1cc(OC)c(/C=C2\N=C(C)N(Nc3nnc(NN4C(=O)/C(=C/c5c(OC)cc(OC)cc5OC)N=C4C)c4ccccc34)C2=O)c(OC)c1`, the GI50 with LXFL 529, with SNB-78, in the assay with M19-MEL, with DMS-114, in the assay with HOP-18 and in the assay with DMS-273 was > 100 µM (inactive) throughout. Moreover, the GI50 in the assay with DLD-1 is > 100 µM (inactive).
On to `O=C1C=CC(=O)C2=C1[C@@H](O)C1CC=CC3C(=O)O[C@@H]2C31` (stereo partly specified), for which the GI50 was 15.6 µM (inactive) in the assay on LXFL 529; > 42.7 µM (inactive) in the assay on SNB-78; 23.2 µM (inactive) with M19-MEL; 22.7 µM (inactive) with DMS-114; 29.4 µM (inactive) in the assay with HOP-18; 22.1 µM (inactive) in the assay with XF498. The GI50 is 21.9 µM (inactive) in the assay on DMS-273 and 18.2 µM (inactive) with DLD-1.
`CCCCCCCCCCCOc1ccc(C(=O)C(=O)c2ccc(OCCCCCCCCCCC)c(OCCCCCCCCCCC)c2)cc1OCCCCCCCCCCC`: the GI50 in the assay on LXFL 529, in the assay on SNB-78, in the assay on M19-MEL, with DMS-114, in the assay on XF498 and with DMS-273 was > 100 µM (inactive) in each case. In the assay on DLD-1, the GI50 was > 100 µM (inactive).
For the compound `CC(=O)c1ccccc1NC(=O)C(=O)C(C(=O)c1ccc2ccccc2c1)C1OC(=O)c2ccccc21` (stereo unspecified), the GI50 in the assay on LXFL 529 was 9.79 µM (inactive); in the assay with SNB-78, 9.4 µM (inactive); in the assay with M19-MEL, 8.85 µM (inactive); in the assay on DMS-114, 7.98 µM (inactive); in the assay with HOP-18, 14.5 µM (inactive); with XF498, 3.13 µM (inactive). Also, the GI50 in the assay on DMS-273 is 6.32 µM (inactive); with DLD-1 it was 12.2 µM (inactive).
As to `CCc1nc(N)nc(C(=O)NCCNC(=O)c2nc(N)nc(CC)c2C)c1C`, the GI50 in the assay with LXFL 529, in the assay on SNB-78, in the assay with M19-MEL, in the assay on DMS-114, in the assay on RXF 631 and with HOP-18 was > 100 µM (inactive) each time. For the same compound, the GI50 in the assay on XF498, in the assay on DMS-273 and with DLD-1 was > 100 µM (inactive) each time.
With `CC(CCC(=O)O)c1ccc(Br)cc1` (stereo unspecified), the GI50 in the assay with LXFL 529, in the assay on SNB-78, in the assay with M19-MEL, in the assay on DMS-114, in the assay on HOP-18 and in the assay on DMS-273 was > 100 µM (inactive) each time. Besides, the GI50 in the assay on DLD-1 is > 100 µM (inactive).
Regarding `NC(=S)N1N=C2c3ccccc3CC[C@H]2[C@@H]1c1cccs1`, the GI50 was 30.8 µM (inactive) with LXFL 529; 32.4 µM (inactive) in the assay on SNB-78; 19.9 µM (inactive) in the assay on M19-MEL; 22.5 µM (inactive) with DMS-114; 21.1 µM (inactive) with HOP-18; 37.2 µM (inactive) in the assay on XF498. Moreover, the GI50 is 10.8 µM (inactive) with DMS-273 and 50.5 µM (inactive) in the assay on DLD-1.
